Experimental data taken from US20240308982A1, “DEGRADERS OF WILD-TYPE AND MUTANT FORMS OF LRRK2 AND USES THEREOF” (DANA-FARBER CANCER INSTITUTE, INC., priority 2021, published 2024).

Test system: LRRK2
Test: Degradation of LRRK2 (immunoblots of treated cells)
Assay type: cell-based
Details: 448T cells, immunoblot, concentrations 0 to 1000 nM
Procedure: Example 7: Degradation of LRRK2
Cell lines: Mouse embryonic fibroblast (MEF) WT, LRRK2 homozygous knock-ins in MEFs [R1441C; VPS35N(D620N); G2019S].
Tested concentrations of LRRK2 degraders: 0 nM; 10 nM; 30 nM; 100 nM; 300 nM; 1000 nM.
Experimental time points: 1 h; 6 h; 24 h and 48 h.
Complete growth medium: DMEM supplemented with 10% Fetal Bovine Serum; 1% pen/strep; 1% L-Glutamine; 1% MEM Non-essential Amino Acid Solution; 1% sodium pyruvate.
Treatment: WT MEF, and cells containing mutant LRRK2 (R1441C, VPS35N and G2019S) cells were plated at equal density into 6-well plates in a final volume of 3 mL of complete growth medium/well. Degraders were reconstituted in DMSO and used at 1:1000 in cells i.e., 3 μL/3 mL. Treatment began when cells were >60% confluent, starting from the longest, 48 h time point, followed by 24 h, 6 h and finally 1 h.
Cell lysis: Media were aspirated, plates were placed on ice and cells were washed with DPBS. Fifty (50) microliters of an ice-cold lysis buffer containing 50 mM Tris-HCl, pH 7.5, 1% (v/v) Triton X-100, 1 mM EGTA, 1 mM sodium orthovanadate, 50 mM NaF, 0.1% (v/v) 2-mercaptoethanol, 10 mM 2-glycerophosphate, 5 mM sodium pyrophosphate, 0.1 μg/mL microcystin-LR (Enzo Life Sciences), 270 mM sucrose and complete EDTA-free protease inhibitor cocktail (Sigma-Aldrich Cat #11836170001) were added per well. Lysates were centrifuged at 20 817 g (14,000 rpm) for 15 min at 4° C. and supernatants were used to determine protein concentration using Bradford assay (Pierce™ Coomassie (Bradford) Protein Assay Kit, Thermo Scientific Cat #23200) and for Western blot analysis.
Western blot analysis: Cell lysates were mixed with 4× SDS-PAGE sample buffer [50 mM Tris —HCl, pH 6.8, 2% (w/v) SDS, 10% (v/v) glycerol, 0.02% (w/v) Bromophenol Blue and 1% (v/v) 2-mercaptoethanol] to a final total protein concentration of 1 μg/μL and heated at 95° C. for 5 min. […]

- DC50: 33 nM
SMILES: CC1(Oc2ccc3[nH]nc(-c4cc(N5CCN(CC6CN(c7ccc8c(c7)C(=O)N(C7CCC(=O)NC7=O)C8=O)C6)CC5)ncn4)c3c2)CC1 (stereo not drawn) [Compound 1, 2-(2,6-dioxopiperidin-3-yl)-5-(3-((4-(6-(5-(1-methylcyclopropoxy)-1H-indazol-3-yl)pyrimidin-4-yl)piperazin-1-yl)methyl)azetidin-1-yl)isoindoline-1,3-dione]
- Dmax: 60%
- degrader of LRRK2: potent degrader of LRRK2
